Data: patent publication US20120077837A1, “ANTI-TUMOR AGENT” (EISAI R&D MANAGEMENT CO., LTD., priority 2010, published 2012)

System: human renal cell carcinoma cell line (Caki-1)
Assay: Tumor growth-inhibitory action by combined use of Compound A and everolimus in nude mice transplanted with Caki-1
Assay type: in vivo
Conditions: subcutaneous Caki-1 xenograft, oral once per day, Compound A 10 mg/kg, everolimus 30 mg/kg
Method: Using 5 individuals per group of nude mice (CAnN.Cg-Foxn1nu/Cr1Cr1j, female, Charles River Japan, Inc.), the antitumor effect obtained when Compound A, everolimus or the both compounds was/were administered was evaluated. Human-derived renal cell carcinoma cell line Caki-1(ATCC) was added to a medium (RPMI-1640, Wako Pure Chemical Industries, Ltd.) to a density of 2×10^8 cells/mL and suspended therein. To the resulting suspension, an equal volume of Matrigel™ matrix (Nippon Becton Dickinson Co., Ltd.) was added, and the resulting mixture was mixed sufficiently. The mixture was subcutaneously transplanted at the left flank of each mouse in an amount of 0.1 mL.
Forty eight days after the transplantation, the major axis and the minor axis were measured using an electronic digital caliper (Digimatic™ caliper, Mitutoyo Corporation). The mice were separated into groups such that the average value of the tumor volume is almost the same among the groups. The volume of the tumor was calculated according to the equation below.
Tumor volume=major axis (mm)×minor axis (mm)×minor axis (mm)/2
Compound A was dissolved in purified water to a concentration of 1 mg/mL. Further, everolimus was suspended in a mixed solution of DMSO, Tween 80 and glucose (3.5:6.5:90 (V/V/V), hereinafter referred to as solvent) to a concentration of 3 mg/mL.
To the mice of each group, the Compound A solution and the solvent, the everolimus suspension and purified water, or the Compound A solution and the everolimus suspension were orally administered in an amount of 10 mL/kg once per day for 15 days. The doses of Compound A and everolimus were 10 mg/kg and 30 mg/kg, respectively. To the control group, 10 mL/kg each of purified water and the solvent was administered.
The tumor volume of each mouse was measured on Day 4, 7, 11 and 14 after the beginning of the administration. The ratio of the tumor volume observed on each day of the measurement relative to the tumor volume observed on the day when the administration was begun was calculated as the relative tumor volume (hereinafter referred to as RTV).

[1] = Day 4 after beginning of administration
[2] = Day 7 after beginning of administration
[3] = Day 11 after beginning of administration
[4] = Day 14 after beginning of administration

Compound	relative tumor volume (RTV) [1]	relative tumor volume (RTV) [2]	relative tumor volume (RTV) [3]	relative tumor volume (RTV) [4]
COc1cc2nccc(Oc3ccc(NC(=O)NC4CC4)c(Cl)c3)c2cc1C(N)=O [Compound A, 4-[3-chloro-4-(cyclopropylaminocarbonyl)aminophenoxy]-7-methoxy-6-quinolinecarboxamide]	1.15	1.15	1.07	1.02
COC1CC2CCC(C)C(O)(O2)C(=O)C(=O)N2CCCCC2C(=O)OC(C(C)CC2CCC(OCCO)C(OC)C2)CC(=O)C(C)/C=C(\C)C(O)C(OC)C(=O)C(C)CC(C)/C=C/C=C/C=C/1C (centres unmarked) [Everolimus, 42-O-(2-hydroxyethyl)-rapamycin]	1.03	0.97	0.95	0.92
